How the values were obtained:
[1] = Degradation kinetics of pimaricin in beverage without β-cyclodextrin, UV-visible peak ratio (Background Example 2); type: physicochemical; conditions: beverage pH 3.4; no β-cyclodextrin
Source text: (§1) Such reactions are a consequence of the formation of reactive oxygen species (ROS) wherein oxygen merely serves as an intermediate in the transfer of electrons in REDOX type reactions which ultimately result in the degradation of more complex molecules such as pimaricin. In this regard, O2 behaves similar to a catalyst. Similar to many reactions involving catalyst, the amount of oxygen required to drive in such reactions is very small. In this regard, it is of interest to evaluate the stability of pimaricin in solution under differing conditions of oxygen tension. Clearly, it is also of interest to establish whether the formation of a complex between pimaricin and β-cyclodextrin serves to stabilize pimaricin from degradation by reaction with oxygen. […] Briefly, pimaricin yields a very distinctive UV-visible spectrum with 3 separate absorption maxima. As pimaricin degrades, the peak heights diminish. Degradation can be tracked through the diminishing peak height of any single peak maxima or through changes in relative peak height.
Freshly prepared samples of pimaricin in water yield a spectrogram of 3 peak 1 (320 nm) peak 2 (304 nm) and peak 3 (291 nm). […] These differences are a reflection of the conjugated diene structure of pimaricin. As the integrity of the conjugate structure gives way to degradation, the relative peak heights are subject to change. […]

[2] = Solubility of pimaricin in aqueous solution; type: physicochemical
[3] = test system: yeast which can spoil carbonated beverage; conditions: types of yeast which can spoil carbonated beverage; cited from earlier work
[4] = test system: Zygosaccharomyces strains or Brettanomyces strains; assay: 16 week spoilage trial in carbonated lemon-lime beverage (Sierra Mist, 3.6 volumes CO2, PET), Comparative Example 1; type: cell-based; conditions: for samples spoiled: period of the test (14 weeks, 98 days), 25° C.
Experimental: […] This beverage is carbonated to 3.6 volumes CO2 in PET containers. Negative control containers received no inoculum. Positive control samples were inoculated with either Zygosaccharomyces strains (907, 28, Marion, HP, Mt. Dew, & SM Soiler) or Brettanomyces strains Dan, H2O2, Cherry 7-UP, 1601-1, and SY-05). […] All samples were then held at 25° C. for the duration of the study. […] 33% of the samples containing 15 ppm spoiled and 100% of samples containing 5 ppm pimaricin spoiled.

[5] = Loss of pimaricin over time in water as a function of O2 content and complex with β-cyclodextrin (Background Example 3); type: physicochemical
Source text: as §1
Given a method to monitor the changes in concentration of pimaricin, it is then possible to establish whether pimaricin degrades differently as a function of variables such as initial oxygen tension of solution. Background Example 3, FIG. 3 captures results for the degradation of pimaricin over a time period of several months as a function of initial oxygen tension and the presence or absence of a complex between pimaricin and β (beta) cyclodextrin.
The initial concentration of pimaricin in complex ≧400 ppm and so pimaricin is fully bound to β-cyclodextrin. Measurements in distilled water at neutral pH and 25° C. Thus, regardless of the presence or absence of a complex with cyclodextrin, pimaricin is subject to degradation over time when in solution.

[6] = short exposures; cited from earlier work

## (IR,3S,5R,7R,8E,12R,14E,16E,18E,20E,22R,24S,25R,26S)-{[3S,4S,5S,6R)-4-amino-3,5-dihydroxy-6-methyloxan-2-yl]oxy}-1,3,26 trihydroxy-12-methyl-10-oxo-6,11,28-trioxatricyclo[22.3.1.0^5,7]octacosa-8,14,16,18,20 pentaene-25-carboxylic acid [pimaricin]
[1]
  degradation in aqueous suspension: degrades relatively quickly
[2]; beverage of acid pH, 25° C.
  normal limit of solubility: 20-25 ppm
[2]; high acid beverage
  limit of solubility: 25 ppm
[2]; in the absence of β-cyclodextrin
  limit of solubility in aqueous solution: 20-25 mg 1^−1
[3]
  reported MIC values: ≥ 10 ppm
[4]; 5 ppm Pimaricin, week 0, day 0
  Onset of Spoilage: 0%
[4]; 5 ppm Pimaricin, week 1, day 7
  Onset of Spoilage: 0%
[4]; 5 ppm Pimaricin, week 2, day 14
  Onset of Spoilage: 0%
[4]; 5 ppm Pimaricin, week 3, day 21
  Onset of Spoilage: 0%
[4]; 5 ppm Pimaricin, week 4, day 28
  Onset of Spoilage: 0%
[4]; 5 ppm Pimaricin, week 5, day 35
  Onset of Spoilage: 0%
[4]; 5 ppm Pimaricin, week 6, day 42
  Onset of Spoilage: 0%
[4]; 5 ppm Pimaricin, week 7, day 49
  Onset of Spoilage: 0%
[4]; 5 ppm Pimaricin, week 8, day 56
  Onset of Spoilage: 0%
[4]; 5 ppm Pimaricin, week 9, day 63
  Onset of Spoilage: 75%
[4]; 5 ppm Pimaricin, week 10, day 70
  Onset of Spoilage: 75%
[4]; 5 ppm Pimaricin, week 11, day 77
  Onset of Spoilage: 100%
[4]; 5 ppm Pimaricin, week 12, day 84
  Onset of Spoilage: 100%
[4]; 5 ppm Pimaricin, week 13, day 91
  Onset of Spoilage: 100%
[4]; 5 ppm Pimaricin, week 14, day 98
  Onset of Spoilage: 100%
[4]; 5 ppm Pimaricin, week 15, day 105
  Onset of Spoilage: 100%
[4]; 5 ppm Pimaricin, week 16, day 112
  Onset of Spoilage: 100%
[4]; 5 ppm Pimaricin, week 17, day 119
  Onset of Spoilage: 100%
[4]; 5 ppm Pimaricin, week 18, day 126
  Onset of Spoilage: 100%
[4]; 5 ppm Pimaricin, week 19, day 133
  Onset of Spoilage: 100%
[4]; 5 ppm Pimaricin, week 20, day 140
  Onset of Spoilage: 100%
[4]; 5 ppm Pimaricin, week 21, day 147
  Onset of Spoilage: 100%
[4]; 5 ppm Pimaricin, week 22, day 154
  Onset of Spoilage: 100%
[4]; 5 ppm Pimaricin, week 23, day 161
  Onset of Spoilage: 100%
[4]; 5 ppm Pimaricin, week 24, day 168
  Onset of Spoilage: 100%
[4]; 5 ppm pimaricin
  samples spoiled: 100%
[4]; 15 ppm Pimaricin, week 0, day 0
  Onset of Spoilage: 0%
[4]; 15 ppm Pimaricin, week 1, day 7
  Onset of Spoilage: 0%
[4]; 15 ppm Pimaricin, week 2, day 14
  Onset of Spoilage: 0%
[4]; 15 ppm Pimaricin, week 3, day 21
  Onset of Spoilage: 0%
[4]; 15 ppm Pimaricin, week 4, day 28
  Onset of Spoilage: 0%
[4]; 15 ppm Pimaricin, week 5, day 35
  Onset of Spoilage: 0%
[4]; 15 ppm Pimaricin, week 6, day 42
  Onset of Spoilage: 0%
[4]; 15 ppm Pimaricin, week 7, day 49
  Onset of Spoilage: 0%
[4]; 15 ppm Pimaricin, week 8, day 56
  Onset of Spoilage: 0%
[4]; 15 ppm Pimaricin, week 9, day 63
  Onset of Spoilage: 0%
[4]; 15 ppm Pimaricin, week 10, day 70
  Onset of Spoilage: 0%
[4]; 15 ppm Pimaricin, week 11, day 77
  Onset of Spoilage: 33%
[4]; 15 ppm Pimaricin, week 12, day 84
  Onset of Spoilage: 33%
[4]; 15 ppm Pimaricin, week 13, day 91
  Onset of Spoilage: 33%
[4]; 15 ppm Pimaricin, week 14, day 98
  Onset of Spoilage: 33%
[4]; 15 ppm Pimaricin, week 15, day 105
  Onset of Spoilage: 33%
[4]; 15 ppm Pimaricin, week 16, day 112
  Onset of Spoilage: 33%
[4]; 15 ppm Pimaricin, week 17, day 119
  Onset of Spoilage: 33%
[4]; 15 ppm Pimaricin, week 18, day 126
  Onset of Spoilage: 33%
[4]; 15 ppm Pimaricin, week 19, day 133
  Onset of Spoilage: 33%
[4]; 15 ppm Pimaricin, week 20, day 140
  Onset of Spoilage: 33%
[4]; 15 ppm Pimaricin, week 21, day 147
  Onset of Spoilage: 33%
[4]; 15 ppm Pimaricin, week 22, day 154
  Onset of Spoilage: 33%
[4]; 15 ppm Pimaricin, week 23, day 161
  Onset of Spoilage: 33%
[4]; 15 ppm Pimaricin, week 24, day 168
  Onset of Spoilage: 33%
[4]; 15 ppm pimaricin
  samples spoiled: 33%
[4]; 25 ppm Pimaricin, week 0, day 0
  Onset of Spoilage: 0%
[4]; 25 ppm Pimaricin, week 1, day 7
  Onset of Spoilage: 0%
[4]; 25 ppm Pimaricin, week 2, day 14
  Onset of Spoilage: 0%
[4]; 25 ppm Pimaricin, week 3, day 21
  Onset of Spoilage: 0%
[4]; 25 ppm Pimaricin, week 4, day 28
  Onset of Spoilage: 0%
[4]; 25 ppm Pimaricin, week 5, day 35
  Onset of Spoilage: 0%
[4]; 25 ppm Pimaricin, week 6, day 42
  Onset of Spoilage: 0%
[4]; 25 ppm Pimaricin, week 7, day 49
  Onset of Spoilage: 0%
[4]; 25 ppm Pimaricin, week 8, day 56
  Onset of Spoilage: 0%
[4]; 25 ppm Pimaricin, week 9, day 63
  Onset of Spoilage: 0%
[4]; 25 ppm Pimaricin, week 10, day 70
  Onset of Spoilage: 0%
[4]; 25 ppm Pimaricin, week 11, day 77
  Onset of Spoilage: 0%
[4]; 25 ppm Pimaricin, week 12, day 84
  Onset of Spoilage: 0%
[4]; 25 ppm Pimaricin, week 13, day 91
  Onset of Spoilage: 0%
[4]; 25 ppm Pimaricin, week 14, day 98
  Onset of Spoilage: 0%
[4]; 25 ppm Pimaricin, week 15, day 105
  Onset of Spoilage: 0%
[4]; 25 ppm Pimaricin, week 16, day 112
  Onset of Spoilage: 0%
[4]; 25 ppm Pimaricin, week 17, day 119
  Onset of Spoilage: 0%
[4]; 25 ppm Pimaricin, week 18, day 126
  Onset of Spoilage: 0%
[4]; 25 ppm Pimaricin, week 19, day 133
  Onset of Spoilage: 0%
[4]; 25 ppm Pimaricin, week 20, day 140
  Onset of Spoilage: 0%
[4]; 25 ppm Pimaricin, week 21, day 147
  Onset of Spoilage: 0%
[4]; 25 ppm Pimaricin, week 22, day 154
  Onset of Spoilage: 0%
[4]; 25 ppm Pimaricin, week 23, day 161
  Onset of Spoilage: 0%
[4]; 25 ppm Pimaricin, week 24, day 168
  Onset of Spoilage: 0%
[4]; equivalent of 30 mg pimaricin per ml
  samples spoiled: None
[4]; samples which contained 25 ppm pimaricin
  freedom from spoilage for duration of shelf-life: remain free of spoilage
[5]; not complexed, oxygen lowered to 3500 ppb
  effect of lowering oxygen concentration on rate of degradation: does not measurably impact the rate of degradation
[5]; not complexed, water containing oxygen in excess of 8500 ppb
  degradation over time: degrades quite quickly
[5]; pimaricin alone in water containing only, neutral pH, 25° C.
  rate of degradation versus water containing 8300 ppm O2: about the same rate
[5]; water containing 8300 ppb O2, distilled water, neutral pH, 25° C.
  rate of degradation versus pimaricin complex β-cyclodextrin: slightly faster rate
[6]
  temperature to which antimicrobial activity is stable: ≥ 120 ° F.

From patent US20150335055A1, “BEVERAGE PR[…] BASED ON PIMARICIN AND HEADSPACE GAS” (PEPSICO, INC., priority 2013, published 2015)
